# Assays:
# Type in all cases: in vivo
# [1] = test system: Bovicola ovis (Schrank), sheep body louse; experiment: Pen trial of diflubenzuron pour-on against sheep lice (Examples 2-4); conditions: for % Lice reduction: corrected lice counts
# Description: Order—Phthiraptera, Sub Order—Mallophaga, Family—Trichodectidae, Genus—Damalinia (Bovicola, Trichodectes), Species—Bovicola ovis (Schrank) and Common name—Sheep body louse.
# The sheep used in this study were a uniform line of Merino wethers heavily infected with lice.
# The method requires examination of twenty partings each 10 cm long, along two contours on the left and right sides covering the wool growing regions of the animal. At each of the 40 recorded sites all live adult lice are counted. Site counts are summed to give a total count for the animal.
# Within 24 hours of shearing, treatments were applied as a single stripe along the backline of the sheep. The dose rate applied was based on 20 mL of treatment per animal which is based on all test animals being in the 30.1-55 kg weight range.
# The delivery apparatus for each formulation was a commercial applicator, set to deliver 1×20 mL doses to the sheep backline. The gun was calibrated using a volumetric cylinder and checked twice before and once after treatment.
# To avoid the possibility of rain complicating the post treatment situation the sheep were kept in pens for a minimum of 48 hours. Then on the morning of the 25 th day of the trial, they were placed into their paddocks. […]
# sheep lice = experiment: Field efficacy (control of sheep lice); conditions: 25 g/L; for Pre treatment mean lice count: baseline
# [2] = Tissue residues after aqueous pour-on, sheep; conditions: 20 mg/kg pour-on, LOQ = 0.02 mg/kg
# Experimental: (§1) Tissue residue studies were carried out following application of the aqueous pour-on to both sheep and cattle (Reference is made to page 1, lines 34 and 35 where it is mentioned that treatment with non aqueous pour-on formulations can lead to high tissue residues in animals treated with these formulations.)
# [3] = Tissue residues after aqueous pour-on, cattle; conditions: 15 mg/kg pour-on, LOQ = 0.02 mg/kg
# Experimental: as §1
compound,measurement,setting,value
"O=C(NC(=O)c1c(F)cccc1F)Nc1ccc(Cl)cc1 [Diflubenzuron, diflubenzuron]",lice killed,"[1]; 12.5 and 25.0 g/L, 20 ml dose along the backline of sheep, within 10 weeks of application",95%
same,lice kills,"[1]; 12.5 and 25.0 g/L, 20 ml dose along the backline of sheep, within 20 weeks",100%
same,% Lice reduction,"[1]; 12.5 g/L pour-on, sheep, after 2 weeks",91.0%
same,% Lice reduction,"[1]; 12.5 g/L pour-on, sheep, after 5 weeks",94.9%
same,% Lice reduction,"[1]; 12.5 g/L pour-on, sheep, after 10 weeks",98.9%
same,% Lice reduction,"[1]; 12.5 g/L pour-on, sheep, after 15 weeks",100.0%
same,% Lice reduction,"[1]; 12.5 g/L pour-on, sheep, after 20 weeks",100.0%
same,Mean Lice Counts,"[1]; 12.5 g/L, 20 mL backline (250 mg per sheep), 5 Merino wethers, week 0 (baseline)",161.8
same,Mean Lice Counts,"[1]; 12.5 g/L, 20 mL backline, sheep, 2 weeks after treatment",6.8
same,Mean Lice Counts,"[1]; 12.5 g/L, 20 mL backline, sheep, 5 weeks after treatment",1.8
same,Mean Lice Counts,"[1]; 12.5 g/L, 20 mL backline, sheep, 10 weeks after treatment",0.4
same,Mean Lice Counts,"[1]; 12.5 g/L, 20 mL backline, sheep, 15 weeks after treatment",0.0
same,Mean Lice Counts,"[1]; 12.5 g/L, 20 mL backline, sheep, 20 weeks after treatment",0.0
same,% Lice reduction,"[1]; 25.0 g/L pour-on, sheep, after 2 weeks",69.6%
same,% Lice reduction,"[1]; 25.0 g/L pour-on, sheep, after 5 weeks",83.4%
same,% Lice reduction,"[1]; 25.0 g/L pour-on, sheep, after 10 weeks",94.8%
same,% Lice reduction,"[1]; 25.0 g/L pour-on, sheep, after 15 weeks",96.4%
same,% Lice reduction,"[1]; 25.0 g/L pour-on, sheep, after 20 weeks",100.0%
same,Mean Lice Counts,"[1]; 25.0 g/L, 20 mL backline (500 mg per sheep), 5 Merino wethers, week 0 (baseline)",120.6
same,Mean Lice Counts,"[1]; 25.0 g/L, 20 mL backline, sheep, 2 weeks after treatment",17.2
same,Mean Lice Counts,"[1]; 25.0 g/L, 20 mL backline, sheep, 5 weeks after treatment",4.4
same,Mean Lice Counts,"[1]; 25.0 g/L, 20 mL backline, sheep, 10 weeks after treatment",1.4
same,Mean Lice Counts,"[1]; 25.0 g/L, 20 mL backline, sheep, 15 weeks after treatment",1.0
same,Mean Lice Counts,"[1]; 25.0 g/L, 20 mL backline, sheep, 20 weeks after treatment",0.0
same,% Lice reduction,"sheep lice; Trial 1, Uraila, N.S.W., 1309 fine wool merinos, after 6 weeks",98.1%
same,% Lice reduction,"sheep lice; Trial 1, Uraila, N.S.W., 1309 fine wool merinos, after 12 weeks",98.7%
same,% Lice reduction,"sheep lice; Trial 1, Uraila, N.S.W., 1309 fine wool merinos, after 20 weeks",100%
same,Pre treatment mean lice count,"sheep lice; Trial 1, Uraila, N.S.W., 1309 fine wool merinos",156
same,% Lice reduction,"sheep lice; Trial 2, Guyra, N.S.W., 2000 super fine wool, after 6 weeks",100%
same,% Lice reduction,"sheep lice; Trial 2, Guyra, N.S.W., 2000 super fine wool, after 12 weeks",100%
same,% Lice reduction,"sheep lice; Trial 2, Guyra, N.S.W., 2000 super fine wool, after 20 weeks",100%
same,Pre treatment mean lice count,"sheep lice; Trial 2, Guyra, N.S.W., 2000 super fine wool",41
same,% Lice reduction,"sheep lice; Trial 3, Crookwell, N.S.W., 680 medium fine wool merinos, after 6 weeks",91.3%
same,% Lice reduction,"sheep lice; Trial 3, Crookwell, N.S.W., 680 medium fine wool merinos, after 12 weeks",99.6%
same,% Lice reduction,"sheep lice; Trial 3, Crookwell, N.S.W., 680 medium fine wool merinos, after 20 weeks",100%
same,Pre treatment mean lice count,"sheep lice; Trial 3, Crookwell, N.S.W., 680 medium fine wool merinos",242
same,% Lice reduction,"sheep lice; Trial 4, Lucindale, N.S.W, 1094 strong wool merinos, after 6 weeks",99.8%
same,% Lice reduction,"sheep lice; Trial 4, Lucindale, N.S.W, 1094 strong wool merinos, after 12 weeks",100%
same,% Lice reduction,"sheep lice; Trial 4, Lucindale, N.S.W, 1094 strong wool merinos, after 20 weeks",100%
same,Pre treatment mean lice count,"sheep lice; Trial 4, Lucindale, N.S.W, 1094 strong wool merinos",35
same,% Lice reduction,"sheep lice; Trial 5, Coonalpyn, S.A., 1101 strong wool merinos, after 6 weeks",99.6%
same,% Lice reduction,"sheep lice; Trial 5, Coonalpyn, S.A., 1101 strong wool merinos, after 12 weeks",100%
same,% Lice reduction,"sheep lice; Trial 5, Coonalpyn, S.A., 1101 strong wool merinos, after 20 weeks",100%
same,Pre treatment mean lice count,"sheep lice; Trial 5, Coonalpyn, S.A., 1101 strong wool merinos",142
same,% Lice reduction,"sheep lice; Trial 6, Lismore, Vic, 812 super fine merinos, after 6 weeks",99.5%
same,% Lice reduction,"sheep lice; Trial 6, Lismore, Vic, 812 super fine merinos, after 12 weeks",100%
same,% Lice reduction,"sheep lice; Trial 6, Lismore, Vic, 812 super fine merinos, after 20 weeks",100%
same,Pre treatment mean lice count,"sheep lice; Trial 6, Lismore, Vic, 812 super fine merinos",51
same,"Level of diflubenzuron residues in tissues, Kidney",[2]; 1 day post treatment,<LOQ
same,"Level of diflubenzuron residues in tissues, Liver",[2]; 1 day post treatment,<LOQ
same,"Level of diflubenzuron residues in tissues, Muscle",[2]; 1 day post treatment,<LOQ
same,"Level of diflubenzuron residues in tissues, Inguinal fat","[2]; 1 day post treatment, max",≤ 0.02 max mg/kg
same,"Level of diflubenzuron residues in tissues, peri-renal fat","[2]; 1 day post treatment, max",≤ 0.03 max mg/kg
same,"Level of diflubenzuron residues in tissues, Kidney",[2]; 3 days post treatment,<LOQ
same,"Level of diflubenzuron residues in tissues, Liver",[2]; 3 days post treatment,<LOQ
same,"Level of diflubenzuron residues in tissues, Muscle",[2]; 3 days post treatment,<LOQ
same,"Level of diflubenzuron residues in tissues, Inguinal fat","[2]; 3 days post treatment, max",≤ 0.04 max mg/kg
same,"Level of diflubenzuron residues in tissues, peri-renal fat","[2]; 3 days post treatment, max",≤ 0.02 max mg/kg
same,"Level of diflubenzuron residues in tissues, Kidney",[2]; 7 days post treatment,<LOQ
same,"Level of diflubenzuron residues in tissues, Liver",[2]; 7 days post treatment,<LOQ
same,"Level of diflubenzuron residues in tissues, Muscle",[2]; 7 days post treatment,<LOQ
same,"Level of diflubenzuron residues in tissues, Inguinal fat","[2]; 7 days post treatment, max",≤ 0.03 max mg/kg
same,"Level of diflubenzuron residues in tissues, peri-renal fat","[2]; 7 days post treatment, max",≤ 0.02 max mg/kg
same,"Level of diflubenzuron residues in tissues, Kidney",[2]; 14 days post treatment,<LOQ
same,"Level of diflubenzuron residues in tissues, Liver",[2]; 14 days post treatment,<LOQ
same,"Level of diflubenzuron residues in tissues, Muscle",[2]; 14 days post treatment,<LOQ
same,"Level of diflubenzuron residues in tissues, peri-renal fat",[2]; 14 days post treatment,<LOQ
same,"Level of diflubenzuron residues in tissues, Inguinal fat","[2]; 14 days post treatment, max",≤ 0.02 max mg/kg
same,"Level of diflubenzuron residues in tissues, Kidney",[2]; 21 days post treatment,<LOQ
same,"Level of diflubenzuron residues in tissues, Liver",[2]; 21 days post treatment,<LOQ
same,"Level of diflubenzuron residues in tissues, Muscle",[2]; 21 days post treatment,<LOQ
same,"Level of diflubenzuron residues in tissues, peri-renal fat",[2]; 21 days post treatment,<LOQ
same,"Level of diflubenzuron residues in tissues, Inguinal fat","[2]; 21 days post treatment, max",≤ 0.05 max mg/kg
same,"Level of diflubenzuron residues in tissues, Inguinal fat",[2]; 42 days post treatment,<LOQ
same,"Level of diflubenzuron residues in tissues, Kidney",[2]; 42 days post treatment,<LOQ
same,"Level of diflubenzuron residues in tissues, Liver",[2]; 42 days post treatment,<LOQ
same,"Level of diflubenzuron residues in tissues, Muscle",[2]; 42 days post treatment,<LOQ
same,"Level of diflubenzuron residues in tissues, peri-renal fat",[2]; 42 days post treatment,<LOQ
same,"Level of diflubenzuron residues in fat tissues, Inguinal fat",[3]; 1 day post treatment,<LOQ
same,"Level of diflubenzuron residues in fat tissues, Inguinal fat",[3]; 3 days post treatment,<LOQ
same,"Level of diflubenzuron residues in fat tissues, Inguinal fat",[3]; 7 days post treatment,<LOQ
same,"Level of diflubenzuron residues in fat tissues, Peri-renal fat",[3]; 7 days post treatment,<LOQ
same,"Level of diflubenzuron residues in fat tissues, Inguinal fat",[3]; 14 days post treatment,<LOQ
same,"Level of diflubenzuron residues in fat tissues, Peri-renal fat",[3]; 14 days post treatment,<LOQ
same,concentration at 1 day,"[3]; bovine, peri-renal fat, topical, 1 day post treatment, read-out: Level of diflubenzuron residues in fat tissues, Peri-renal fat",170 ng/g
same,concentration at 3 days,"[3]; bovine, peri-renal fat, topical, 3 days post treatment, read-out: Level of diflubenzuron residues in fat tissues, Peri-renal fat",90 ng/g

# Reference: patent US6492419B1, “Aqueous insecticidal pour-on formulation” (Schering-Plough Animal Health Corp., priority 1997, dated 2002)
